From KR20130112248A, “피라졸로피리미딘 유도체 화합물, 이를 포함하는 산화질소 생성 억제용 조성물 및 뇌신경 질환 예방 및 치료용 약학적 조성물” (한국과학기술연구원, priority 2012, dated 2013) come the findings set out here.

One assay relates to NO production in BV-2 cells [NO 생성; BV-2 세포]. In words: Nitric oxide (NO) quantification (nitrite, Griess reaction) in LPS-activated BV-2 cells. It counts as cell-based. The settings on record: 20 μM, LPS 0.2 ㎍/mL, 24 h co-treatment, nitrite by Griess at 540 nm. A general note: Nitrite, measured by Griess reagent, commonly stands in for NO production.
On to “N-(2-메톡시벤질)-6-(메틸설파이닐)-1-페닐-1H-피라졸로[3,4-d]피리미딘-4-아민 [화합물 22c]”, for which the “NO (% of LPS)” value is 55±4 % of LPS.

Still in this assay, the particulars now being: Mus musculus, BV-2, 24 h, 20 μM, LPS 0.2 ㎍/mL, 24 h co-treatment, nitrite by Griess at 540 nm.
In the case of `COc1cccc(CNc2nc(SC)nc3c2cnn3-c2ccccc2)c1` [화합물 15l, 1-페닐-4-(3-메톡시벤질)아미노-6-(메틸티오)피라졸로[3,4-d]피리미딘], the activity at 20 µM amounted to 50 ± 9%.
On the same count and under the same terms, next, `CS(=O)(=O)c1nc(NCc2ccccc2Cl)c2cnn(-c3ccccc3)c2n1` [화합물 23b, N-(2-클로로벤질)-6-(메틸설포닐)-1-페닐-1H-피라졸로[3,4-d]피리미딘-4-아민]: 93 ± 2%; `COc1ccc([C@H](C)Nc2nc(S(C)(=O)=O)nc3c2cnn3Cc2ccccc2)cc1` [화합물 23v, 1-벤질-N-((S)-1-(4-메톡시페닐)에틸)-6-(메틸설포닐)-1H-피라졸로[3,4-d]피리미딘-4-아민]: 59 ± 3%.
On the same count and under the same terms, the figure for `COc1ccccc1CNc1nc(SC)nc2c1cnn2C(C)(C)C` [화합물 17i, N-(2-메톡시벤질)-1-t-뷰틸-6-(methylthio)-1H-피라졸로[3,4-d]피리미딘-4-아민] is 45 ± 5.9%.
On to `COc1cccc(CCn2ncc3c(NCc4ccccc4C)nc(SC)nc32)c1` [화합물 18c, N-(2-메틸벤질)-1-(3-메톡시펜에틸)-6-(메틸티오)-1H-피라졸로[3,4-d]피리미딘-4-아민], for which the activity at 20 µM is 37 ± 7.9%.
For the compound `CSc1nc(NCCc2ccccc2)c2c(-c3ccccc3)nn(-c3ccccc3)c2n1` [화합물 31e, 1-페닐-3-페닐-4-(2-페닐에틸)아미노-6-(메틸티오)피라졸로[3,4-d]피리미딘], the activity at 20 µM worked out at 105 ± 10%.
For the compound `C=CCNc1nc(SC)nc2c1cnn2CC=C` [화합물 13b, 1-알릴-4-알릴아미노-6-(메틸티오)피라졸로[3,4-d]피리미딘], the activity at 20 µM came to 86 ± 9%.
On the same count and under the same terms, next, `CSc1nc(N2CCCCC2)c2cn[nH]c2n1` [6s, 4-피페리디노-6-(메틸티오)피라졸로[3,4-d]피리미딘]: 85 ± 15%; `COc1cccc(CCn2ncc3c(Cl)nc(SC)nc32)c1` [5j, 1-(3-메톡시펜에틸)-4-클로로-6-(메틸티오)-1H-피라졸로[3,4-d]피리미딘]: 5 ± 49.7%.
As for `C=CCn1ncc2c(NCc3ccccn3)nc(SC)nc21` [화합물 13n, 1-알릴-6-(메틸티오)-N-((피리딘-2-일)메틸)-1H-피라졸로[3,4-d]피리미딘-4-아민], the activity at 20 µM turned out to be 17.6 ± 0.7%.
Regarding `CSc1nc(N(CCO)CCO)c2cnn(C)c2n1` [12c, 1-메틸-4-비스(1-하이드록시에틸)아미노-6-(메틸티오)피라졸로[3,4-d]피리미딘], the activity at 20 µM stood at 115 ± 6%.
Consider `COc1ccccc1CNc1nc([S+](C)[O-])nc2c1cnn2-c1ccccc1` (stereo not shown) [화합물 22b, N-(2-메톡시벤질)-6-(메틸설파이닐)-1-페닐-1H-피라졸로[3,4-d]피리미딘-4-아민], for which the activity at 20 µM came out at 28 ± 4.1%.
Regarding `CCN(CC)c1nc(SC)nc2[nH]ncc12` [6u, 4-다이에틸아미노-6-(메틸티오)피라졸로[3,4-d]피리미딘], the activity at 20 µM came to 87 ± 8%.
Regarding `CSc1nc(Cl)c2cnn(C)c2n1` [5a, 1-메틸-4-클롤로-6-(메틸티오)피라졸로[3,4-d]피리미딘], the activity at 20 µM came to 51 ± 2%.
Turning to `COc1cccc(CCn2ncc3c(NCc4ccccc4Cl)nc(S(C)(=O)=O)nc32)c1` [화합물 23w, N-(2-클로로벤질)-1-(3-메톡시펜에틸)-6-(메틸설포닐)-1H-피라졸로[3,4-d]피리미딘-4-아민], the activity at 20 µM amounted to 54 ± 2.3%.
`COc1cccc(CNc2nc(SC)nc3c2cnn3-c2ccc(C)cc2)c1` [화합물 21d, N-(3-메톡시벤질)-6-(메틸티오)-1-p-톨릴-1H-피라졸로[3,4-d]피리미딘-4-아민]: the activity at 20 µM was found to be 42 ± 5.2%.
The same measure, in the same setting: the figure for `CSc1nc(NCc2ccccc2Cl)c2cnn(-c3ccc(C)cc3)c2n1` [화합물 21a, N-(2-클로로벤질)-6-(메틸티오)-1-p-톨릴-1H-피라졸로[3,4-d]피리미딘-4-아민] is 37 ± 10.7%; for `C=CCSc1nc(SC)nc2c1cnn2-c1ccccc1` [화합물 25b, 1-페닐-4-알릴티오-6-(메틸티오)피라졸로[3,4-d]피리미딘] it is 89 ± 6%; for `CCCCNc1nc(S(C)(=O)=O)nc2c1cnn2-c1ccccc1` [화합물 23a, N-뷰틸-6-(메틸설포닐)-1-페닐-1H-피라졸로[3,4-d]피리미딘-4-아민] it is 40 ± 7.1%.
With `C=CCNc1nc(SC)nc2c1cnn2C` [화합물 12i, 1-메틸-4-알릴아미노-6-(메틸티오)피라졸로[3,4-d]피리미딘], the activity at 20 µM came out at 101 ± 3%.
On to `COc1ccccc1CNc1nc(SC)nc2[nH]ncc12` [6v, 4-(2-메톡시벤질)아미노-6-(메틸티오)피라졸로[3,4-d]피리미딘], for which the activity at 20 µM is 36 ± 7%.
